From ChEMBL document CHEMBL1158673, “Bioactive kaurane diterpenoids from Annona glabra” (J Nat Prod, 1998)
Converted amounts (≈) assume the structure as drawn. The source made the active and inactive calls. The calls are words filed in the database; no cut-off is given here.

How the values were obtained:
[1] = system: Human immunodeficiency virus; assay: Inhibition of HIV reverse transcriptase at 33 ug/mL by scintillation counting
H9 = assay: Cytotoxicity against human H9 cells; assay type: cell-based
[2] = system: Human immunodeficiency virus; assay: Antiviral activity against HIV infected in human H9 cells assessed as viral replication; assay type: functional, organism-based; conditions: for EC50: Human immunodeficiency virus 1, H9
[3] = Therapeutic index, ratio of IC50 for human H9 cells to EC50 for HIV; assay type: cell-based; conditions: for therapeutic index: H9; for Activity: human, h9

`C[C@@]12CCC[C@@](C)(C=O)[C@H]1CC[C@@]13C[C@H](CC[C@H]12)[C@@H](C(=O)O)C3` gave an inhibition [1] of 14%.
`COC(=O)[C@H]1C[C@@]23CC[C@H]4[C@@](C)(CCC[C@@]4(C)C=O)[C@@H]2CC[C@H]1C3` showed an IC50 (H9) of 20 µg/mL (≈ 60.2 µM), an EC50 [2] of 5 µg/mL (≈ 15 µM) and a therapeutic index [3] of 4.
Work on `COC(=O)[C@]1(OC(C)=O)C[C@@]23CC[C@H]4[C@@](C)(CCC[C@@]4(C)C=O)[C@@H]2CC[C@H]1C3` [ANNOGLABASIN A] yielded an IC50 (H9) of 15 µg/mL (≈ 38.4 µM), an EC50 [2] of 10 µg/mL (≈ 25.6 µM) and a therapeutic index [3] of 1.5.
For `C=C1C[C@@]23CC[C@H]4[C@@](C)(CCC[C@@]4(C)C(=O)O)[C@@H]2CC[C@@H]1C3`, the inhibition [1] was 1%.
`CC1(C)CCC[C@]2(C)[C@@H]1CC[C@@]13C[C@H](CC[C@H]12)[C@H](C(=O)O)C3` showed an IC50 (H9) of 32 µg/mL (≈ 105 µM), an EC50 [2] of 24 µg/mL (≈ 78.8 µM) and a therapeutic index [3] of 1.3.
`CC(=O)OC[C@]1(O)C[C@@]23CC[C@H]4[C@@](C)(CCC[C@@]4(C)C(=O)O)[C@@H]2CC[C@H]1C3` gave an IC50 (H9) of 65 µg/mL (≈ 172 µM), an EC50 [2] of 85 µg/mL (≈ 225 µM) and a therapeutic index [3] of 0.8.
In the case of `Cc1cn([C@H]2C[C@H](N=[N+]=[N-])[C@@H](CO)O2)c(=O)[nH]c1=O` [ZIDOVUDINE], the EC50 [2] is reported as 0.01 µg/mL (≈ 0.0374 µM) and the therapeutic index [3] is reported as 50000.
With `C=C1C[C@@]23CC[C@@H]4[C@](C)(CO)CCC[C@@]4(C)[C@@H]2CC[C@H]1C3` the inhibition [1] was 7%.
For `CC1(C)CCC[C@]2(C)[C@@H]1CC[C@@]13C[C@H](CC[C@H]12)[C@@H](C(=O)O)C3`, the IC50 (H9) was 40 µg/mL (≈ 131 µM), the Activity [2] was “inactive” and the Activity [3] was “Not Active”.
In the case of `C[C@@]12CCC[C@@](C)(C(=O)O)[C@H]1CC[C@@]13C[C@H](CC[C@H]12)[C@@](O)(CO)C3`, the inhibition [1] is reported as 46%.
In the case of `CC(=O)OC[C@]1(C)CCC[C@]2(C)[C@@H]1CC[C@@]13C[C@H](CC[C@H]12)[C@@H](C(=O)O)C3` [ANNOGLABASIN B], the IC50 (H9) is reported as 40 µg/mL (≈ 110 µM), the Activity [2] is reported as “inactive” and the Activity [3] is reported as “Not Active”.
